According to US7598397B2, “Sulfonamide peri-substituted bicyclics for occlusive artery disease” (deCODE genetics ehf, priority 2004, dated 2009):
pIC50: −log10 of the molar value.

Target: T1, prostanoid EP3 receptors (Homo sapiens, UniProt P43115)
T1 sequence (P43115 1-390): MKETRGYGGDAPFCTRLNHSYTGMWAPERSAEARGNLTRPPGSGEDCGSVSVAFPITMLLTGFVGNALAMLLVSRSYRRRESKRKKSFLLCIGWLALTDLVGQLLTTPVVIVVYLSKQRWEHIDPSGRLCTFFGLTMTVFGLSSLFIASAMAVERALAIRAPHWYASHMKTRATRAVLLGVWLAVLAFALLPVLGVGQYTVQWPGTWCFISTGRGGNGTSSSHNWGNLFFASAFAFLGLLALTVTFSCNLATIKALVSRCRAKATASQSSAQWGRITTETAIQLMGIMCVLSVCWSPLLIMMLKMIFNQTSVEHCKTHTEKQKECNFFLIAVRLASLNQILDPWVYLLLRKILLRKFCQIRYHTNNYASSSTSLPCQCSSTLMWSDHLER
Experiment: binding on prostanoid EP3 receptors (method of Abramovitz et al.)
Settings: read-out: Activity (EP3 receptor binding, IC50 class)
Protocol: The compounds of the invention were assayed for their binding on prostanoid EP3 receptors according to the method of Abramovitz et al. [Bioch. Biophys.

Compound	pIC50
O=C(C=Cc1cccc2c1C(Nc1ccc(Cl)cc1Cl)C(=O)N2)NS(=O)(=O)c1cc(Cl)c(Cl)s1 (stereo not shown) [Compound P287]	> 6.00
Cn1cc(C=CC(=O)NS(=O)(=O)c2cc(Cl)c(Cl)s2)c2c(Oc3ccc(Cl)c(Cl)c3)cccc21 [Compound P290]	> 6.00
Cn1cc(C=CC(=O)NS(=O)(=O)c2cc(Cl)c(Cl)s2)c2c(Oc3cccc(Cl)c3Cl)cccc21 [Compound P291]	> 6.00
Cn1cc(C=CC(=O)NS(=O)(=O)c2cc(F)c(F)cc2F)c2c(Oc3ccc(Cl)c(Cl)c3)cccc21 [Compound P292]	> 6.00
Cn1cc(C=CC(=O)NS(=O)(=O)c2ccc(F)c(F)c2)c2c(Oc3ccc(Cl)c(Cl)c3)cccc21 [Compound P293]	> 6.00
CC12CCCC(C=CC(=O)NS(=O)(=O)c3ccc(F)c(F)c3)=C1N(Cc1ccc(F)cc1)C(=O)C2 (stereo not shown) [Compound P294]	> 6.00
CC12CCCC(C=CC(=O)NS(=O)(=O)c3cc(F)cc(F)c3)=C1N(Cc1ccc(F)cc1)C(=O)C2 (stereo not shown) [Compound P295]	> 6.00
CC12CCCC(C=CC(=O)NS(=O)(=O)c3cc(F)c(F)cc3F)=C1N(Cc1cccc(Cl)c1Cl)C(=O)C2 (stereo not shown) [Compound P296]	> 6.00
CC12CCCC(C=CC(=O)NS(=O)(=O)c3ccc(F)c(F)c3)=C1N(Cc1cccc(Cl)c1Cl)C(=O)C2 (stereo not shown) [Compound P297]	> 6.00
CC12CCCC(C=CC(=O)NS(=O)(=O)c3cc(F)cc(F)c3)=C1N(Cc1cccc(Cl)c1Cl)C(=O)C2 (stereo not shown) [Compound P298]	> 6.00
CC12CCCC(C=CC(=O)NS(=O)(=O)c3cc(Cl)c(Cl)s3)=C1N(Cc1cccc(Cl)c1Cl)C(=O)C2 (stereo not shown) [Compound P299]	> 6.00
CC12CCCC(C=CC(=O)NS(=O)(=O)c3cc(F)c(F)cc3F)=C1N(Cc1ccc(F)cc1)C(=O)C2 (stereo not shown) [Compound P300]	> 6.00
Cn1cc(C=CC(=O)NS(=O)(=O)c2ccc(F)c(F)c2)c2c(Oc3ccc(Cl)cc3Cl)cccc21 [Compound P302]	> 6.00
Cn1cc(C=CC(=O)NS(=O)(=O)c2cc(Cl)c(Cl)s2)c2c(Oc3ccc(Cl)cc3Cl)cccc21 [Compound P303]	> 6.00
CC12CCCC(C=CC(=O)NS(=O)(=O)c3ccc(F)c(F)c3)=C1N(Cc1ccc(F)c(F)c1)C(=O)C2 (stereo not shown) [Compound P304]	> 6.00
CC12CCCC(C=CC(=O)NS(=O)(=O)c3cc(F)cc(F)c3)=C1N(Cc1ccc(F)c(F)c1)C(=O)C2 (stereo not shown) [Compound P305]	> 6.00
COc1cccc(CN2C(=O)CC3(C)CCCC(C=CC(=O)NS(=O)(=O)c4cc(F)c(F)cc4F)=C23)c1 (stereo not shown) [Compound P306]	> 6.00
COc1cccc(CN2C(=O)CC3(C)CCCC(C=CC(=O)NS(=O)(=O)c4cc(F)cc(F)c4)=C23)c1 (stereo not shown) [Compound P307]	> 6.00
COc1cccc(CN2C(=O)CC3(C)CCCC(C=CC(=O)NS(=O)(=O)c4ccc(F)c(F)c4)=C23)c1 (stereo not shown) [Compound P308]	> 6.00
Cn1cc(C=CC(=O)NS(=O)(=O)c2cc(F)c(F)cc2F)c2c(Oc3ccc(Cl)cc3)cccc21 [Compound P309]	> 6.00

The remaining lines, values ahead:

pIC50	Compound
> 6.00	Cn1cc(C=CC(=O)NS(=O)(=O)c2ccc(F)c(F)c2)c2c(Oc3ccc(Cl)cc3)cccc21 [Compound P310]
> 6.00	Cn1cc(/C=C/C(=O)NS(=O)(=O)c2cc(Cl)c(Cl)s2)c2c(Oc3ccc(Cl)cc3)cccc21 [Compound P311]
> 6.00	Cc1cn(Cc2ccc(F)cc2)c2c(C=CC(=O)NS(=O)(=O)c3cc(F)c(F)cc3F)cc(F)cc12 [Compound P312]
> 6.00	Cc1cn(Cc2ccc(F)cc2)c2c(C=CC(=O)NS(=O)(=O)c3ccc(F)c(F)c3)cc(F)cc12 [Compound P314]
> 6.00	Cc1cn(Cc2ccc(F)c(F)c2)c2c(C=CC(=O)NS(=O)(=O)c3ccc(F)c(F)c3)cc(F)cc12 [Compound P315]
> 6.00	Cc1cn(Cc2ccc(F)cc2)c2c(C=CC(=O)NS(=O)(=O)c3cc(F)cc(F)c3)cc(F)cc12 [Compound P316]
> 6.00	Cn1cc(C=CC(=O)NS(=O)(=O)c2cc(F)c(F)cc2F)c2c(Oc3ccc(F)c(F)c3)cccc21 [Compound P318]
> 6.00	Cn1cc(C=CC(=O)NS(=O)(=O)c2ccc(F)c(F)c2)c2c(Oc3ccc(F)c(F)c3)cccc21 [Compound P319]
> 6.00	Cn1cc(C=CC(=O)NS(=O)(=O)c2cc(Cl)c(Cl)s2)c2c(Oc3ccc(F)c(F)c3)cccc21 [Compound P320]
> 6.00	Cn1cc(C=CC(=O)NS(=O)(=O)c2cc(F)c(F)cc2F)c2c(Oc3ccc(F)cc3F)cccc21 [Compound P324]
> 6.00	Cn1cc(/C=C/C(=O)NS(=O)(=O)c2cc(Cl)c(Cl)s2)c2c(Oc3ccc(F)cc3F)cccc21 [Compound P326]
> 6.00	Cn1cc(C=CC(=O)NS(=O)(=O)c2cc(F)c(F)cc2F)c2c(Oc3ccc(F)c(Cl)c3)cccc21 [Compound P328]
> 6.00	Cn1cc(C=CC(=O)NS(=O)(=O)c2cc(Cl)c(Cl)s2)c2c(Oc3ccc(F)c(Cl)c3)cccc21 [Compound P330]
> 6.00	Cn1cc(C=CC(=O)NS(=O)(=O)c2cc(F)c(F)cc2F)c2c(Oc3ccc(Cl)c(F)c3)cccc21 [Compound P331]
> 6.00	Cn1cc(C=CC(=O)NS(=O)(=O)c2ccc(F)c(F)c2)c2c(Oc3ccc(Cl)c(F)c3)cccc21 [Compound P332]
> 6.00	Cn1cc(/C=C/C(=O)NS(=O)(=O)c2cc(Cl)c(Cl)s2)c2c(Oc3ccc(Cl)c(F)c3)cccc21 [Compound P333]
> 6.00	Cn1cc(/C=C/C(=O)NS(=O)(=O)c2ccc(F)c(F)c2)c2c(Oc3ccc4ccccc4c3)cccc21 [Compound P334]
> 6.00	Cc1cn(Cc2ccc(Cl)cc2Cl)c2c(C=CC(=O)NS(=O)(=O)c3ccc(F)c(F)c3)cc(F)cc12 [Compound P335]
> 6.00	Cn1cc(C=CC(=O)NS(=O)(=O)c2cc(F)c(F)cc2F)c2c(Oc3ccc(Cl)cc3F)cccc21 [Compound P337]
> 6.00	Cn1cc(C=CC(=O)NS(=O)(=O)c2ccc(F)c(F)c2)c2c(Oc3ccc(Cl)cc3F)cccc21 [Compound P338]
> 6.00	Cn1cc(/C=C/C(=O)NS(=O)(=O)c2cc(Cl)c(Cl)s2)c2c(Oc3ccc(Cl)cc3F)cccc21 [Compound P339]
> 6.00	Cn1cc(C=CC(=O)NS(=O)(=O)c2cc(F)c(F)cc2F)c2c(Oc3ccc(F)cc3Cl)cccc21 [Compound P340]
> 6.00	Cn1cc(C=CC(=O)NS(=O)(=O)c2ccc(F)c(F)c2)c2c(Oc3ccc(F)cc3Cl)cccc21 [Compound P341]
> 6.00	Cn1cc(C=CC(=O)NS(=O)(=O)c2cc(Cl)c(Cl)s2)c2c(Oc3ccc(F)cc3Cl)cccc21 [Compound P342]
> 6.00	Cn1cc(/C=C/C(=O)NS(=O)(=O)c2cc(F)c(F)cc2F)c2c(Oc3ccc4ccccc4c3)cccc21 [Compound P343]
> 6.00	CCOC(=O)C12CCCC(C=CC(=O)NS(=O)(=O)c3cc(F)c(F)cc3F)=C1N(Cc1ccc(Cl)cc1Cl)C(=O)C2 (stereo not shown) [Compound P344]
> 6.00	CCOC(=O)C12CCCC(C=CC(=O)NS(=O)(=O)c3cc(Cl)c(Cl)s3)=C1N(Cc1ccc(Cl)cc1Cl)C(=O)C2 (stereo not shown) [Compound P345]
> 6.00	CCOC(=O)C12CCCC(C=CC(=O)NS(=O)(=O)c3ccc(F)c(F)c3)=C1N(Cc1ccc(Cl)cc1Cl)C(=O)C2 (stereo not shown) [Compound P346]
> 6.00	Cc1cn(Cc2ccc(Cl)cc2Cl)c2c(C=CC(=O)NS(=O)(=O)c3cc(Cl)c(Cl)s3)cncc12 [Compound P348]
